SMILES strings stand for the structures.

Common to all, as to experiment: Tyrosine kinase inhibition assay
Assay type in all cases: biochemical
What all share (details): single concentration 1.0 μM, read-out: percent inhibition

The target of one experiment is ALK (Homo sapiens, UniProt Q9UM73). The gist of the method: (§1)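 Percent inhibition from a one-concentration (1.0 μM) Z′-LYTE biochemical screen at apparent-Km ATP; >80% scored as a hit.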
In a further experiment the target is EPHA5 (Homo sapiens, UniProt P54756). The method, boiled down: as §1
In the next experiment the target is AURKB (Aurora B) (Homo sapiens, UniProt Q96GD4). The gist of the method:
as §1

For a further experiment, the target named is INSR (Homo sapiens, UniProt P06213). The method, boiled down:
as §1

Another experiment has as its target PDGFRB (PDGFR beta) (Homo sapiens, UniProt P09619). The method, boiled down:
as §1

A further experiment addresses T1, TNK1 (Homo sapiens, UniProt Q13470).
T1 sequence (Q13470 1-666): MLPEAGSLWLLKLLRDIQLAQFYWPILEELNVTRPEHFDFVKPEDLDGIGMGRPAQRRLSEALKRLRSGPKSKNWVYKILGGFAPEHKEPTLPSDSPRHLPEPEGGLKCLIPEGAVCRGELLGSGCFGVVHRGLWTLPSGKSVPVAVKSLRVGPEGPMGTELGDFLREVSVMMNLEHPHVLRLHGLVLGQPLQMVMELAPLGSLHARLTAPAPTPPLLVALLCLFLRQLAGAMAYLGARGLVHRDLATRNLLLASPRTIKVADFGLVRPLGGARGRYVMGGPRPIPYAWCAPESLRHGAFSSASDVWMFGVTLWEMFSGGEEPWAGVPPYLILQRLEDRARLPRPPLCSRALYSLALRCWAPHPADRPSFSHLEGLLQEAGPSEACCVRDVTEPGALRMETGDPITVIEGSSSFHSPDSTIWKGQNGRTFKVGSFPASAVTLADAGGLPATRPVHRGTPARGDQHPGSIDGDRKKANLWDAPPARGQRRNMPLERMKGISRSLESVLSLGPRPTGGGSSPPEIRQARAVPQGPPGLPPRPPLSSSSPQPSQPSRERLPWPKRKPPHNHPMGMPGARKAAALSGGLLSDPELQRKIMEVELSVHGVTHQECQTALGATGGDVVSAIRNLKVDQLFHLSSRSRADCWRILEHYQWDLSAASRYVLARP
The gist of the method:
as §1

For the next experiment, the target named is T2, EPHA6 (Homo sapiens, UniProt Q9UF33).
T2 sequence (Q9UF33 23-1036): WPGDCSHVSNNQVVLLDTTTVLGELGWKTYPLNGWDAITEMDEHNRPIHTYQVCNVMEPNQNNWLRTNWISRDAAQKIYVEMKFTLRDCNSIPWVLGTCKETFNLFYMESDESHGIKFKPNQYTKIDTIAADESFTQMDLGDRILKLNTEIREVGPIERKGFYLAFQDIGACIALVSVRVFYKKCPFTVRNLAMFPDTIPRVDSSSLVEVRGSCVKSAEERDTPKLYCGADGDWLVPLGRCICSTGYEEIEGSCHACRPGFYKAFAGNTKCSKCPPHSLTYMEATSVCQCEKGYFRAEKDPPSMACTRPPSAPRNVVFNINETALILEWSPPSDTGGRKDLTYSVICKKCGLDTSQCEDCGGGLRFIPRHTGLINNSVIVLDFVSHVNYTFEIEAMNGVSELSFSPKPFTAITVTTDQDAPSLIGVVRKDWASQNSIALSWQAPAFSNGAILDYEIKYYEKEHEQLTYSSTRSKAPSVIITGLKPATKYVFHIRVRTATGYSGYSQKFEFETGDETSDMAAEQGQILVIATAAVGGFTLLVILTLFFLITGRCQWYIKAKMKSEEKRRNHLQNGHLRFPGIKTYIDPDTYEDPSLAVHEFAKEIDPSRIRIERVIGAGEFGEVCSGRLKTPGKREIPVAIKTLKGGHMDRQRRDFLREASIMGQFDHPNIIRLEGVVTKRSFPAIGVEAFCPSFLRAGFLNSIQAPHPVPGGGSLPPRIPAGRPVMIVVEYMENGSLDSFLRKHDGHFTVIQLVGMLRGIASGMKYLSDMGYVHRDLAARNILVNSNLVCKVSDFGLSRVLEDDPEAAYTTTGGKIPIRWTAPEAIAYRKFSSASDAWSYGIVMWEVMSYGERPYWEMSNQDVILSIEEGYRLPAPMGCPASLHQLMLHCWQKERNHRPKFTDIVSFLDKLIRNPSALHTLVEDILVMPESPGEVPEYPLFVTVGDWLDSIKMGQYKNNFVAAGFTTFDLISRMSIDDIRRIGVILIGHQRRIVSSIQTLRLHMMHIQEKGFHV
The gist of the method:
as §1

Another experiment concerns the target BRAF V599E (Homo sapiens, UniProt P15056, V600E). The method, boiled down: as §1

Chain of ALK (Q9UM73 19-1620): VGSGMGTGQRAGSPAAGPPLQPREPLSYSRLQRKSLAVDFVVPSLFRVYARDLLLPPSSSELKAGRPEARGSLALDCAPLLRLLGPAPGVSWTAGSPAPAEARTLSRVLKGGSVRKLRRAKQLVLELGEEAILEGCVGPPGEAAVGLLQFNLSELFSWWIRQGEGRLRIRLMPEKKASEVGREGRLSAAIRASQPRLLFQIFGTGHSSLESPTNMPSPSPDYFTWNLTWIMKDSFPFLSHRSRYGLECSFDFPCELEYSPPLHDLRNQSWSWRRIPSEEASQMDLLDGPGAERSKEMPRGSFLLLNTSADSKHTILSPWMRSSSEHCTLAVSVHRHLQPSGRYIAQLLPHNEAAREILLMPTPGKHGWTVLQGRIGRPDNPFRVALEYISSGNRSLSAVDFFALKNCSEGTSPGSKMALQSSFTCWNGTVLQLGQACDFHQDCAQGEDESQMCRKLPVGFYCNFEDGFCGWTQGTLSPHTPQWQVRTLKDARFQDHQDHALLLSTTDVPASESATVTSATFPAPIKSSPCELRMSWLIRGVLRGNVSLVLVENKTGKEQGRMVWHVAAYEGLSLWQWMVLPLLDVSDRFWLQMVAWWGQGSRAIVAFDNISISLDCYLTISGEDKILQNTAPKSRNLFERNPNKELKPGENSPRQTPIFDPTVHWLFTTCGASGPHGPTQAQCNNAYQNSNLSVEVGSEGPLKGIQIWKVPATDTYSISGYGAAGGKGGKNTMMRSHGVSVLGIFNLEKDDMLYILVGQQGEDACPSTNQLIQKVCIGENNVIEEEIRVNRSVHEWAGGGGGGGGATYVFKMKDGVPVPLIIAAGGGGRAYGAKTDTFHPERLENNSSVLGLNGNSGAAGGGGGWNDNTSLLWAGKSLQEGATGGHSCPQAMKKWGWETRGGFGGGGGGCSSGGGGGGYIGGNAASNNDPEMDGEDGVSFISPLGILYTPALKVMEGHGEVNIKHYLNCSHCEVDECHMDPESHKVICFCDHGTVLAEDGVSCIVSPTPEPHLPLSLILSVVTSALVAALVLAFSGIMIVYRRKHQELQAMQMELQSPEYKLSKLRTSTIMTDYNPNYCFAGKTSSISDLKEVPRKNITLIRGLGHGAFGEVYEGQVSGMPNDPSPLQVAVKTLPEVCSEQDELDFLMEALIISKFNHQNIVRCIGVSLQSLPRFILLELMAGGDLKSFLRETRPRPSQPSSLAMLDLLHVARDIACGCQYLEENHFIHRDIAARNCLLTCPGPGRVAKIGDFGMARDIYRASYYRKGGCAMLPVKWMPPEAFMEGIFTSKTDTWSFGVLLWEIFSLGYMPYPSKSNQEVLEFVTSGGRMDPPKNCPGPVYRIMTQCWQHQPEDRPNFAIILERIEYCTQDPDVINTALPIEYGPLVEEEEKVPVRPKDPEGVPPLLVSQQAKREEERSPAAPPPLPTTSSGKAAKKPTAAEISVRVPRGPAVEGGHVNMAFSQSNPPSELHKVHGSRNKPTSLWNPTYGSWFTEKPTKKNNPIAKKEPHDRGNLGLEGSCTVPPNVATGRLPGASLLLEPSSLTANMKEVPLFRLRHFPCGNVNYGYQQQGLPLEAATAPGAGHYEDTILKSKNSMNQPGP
Chain of BRAF V599E (P15056 whole entry V600E): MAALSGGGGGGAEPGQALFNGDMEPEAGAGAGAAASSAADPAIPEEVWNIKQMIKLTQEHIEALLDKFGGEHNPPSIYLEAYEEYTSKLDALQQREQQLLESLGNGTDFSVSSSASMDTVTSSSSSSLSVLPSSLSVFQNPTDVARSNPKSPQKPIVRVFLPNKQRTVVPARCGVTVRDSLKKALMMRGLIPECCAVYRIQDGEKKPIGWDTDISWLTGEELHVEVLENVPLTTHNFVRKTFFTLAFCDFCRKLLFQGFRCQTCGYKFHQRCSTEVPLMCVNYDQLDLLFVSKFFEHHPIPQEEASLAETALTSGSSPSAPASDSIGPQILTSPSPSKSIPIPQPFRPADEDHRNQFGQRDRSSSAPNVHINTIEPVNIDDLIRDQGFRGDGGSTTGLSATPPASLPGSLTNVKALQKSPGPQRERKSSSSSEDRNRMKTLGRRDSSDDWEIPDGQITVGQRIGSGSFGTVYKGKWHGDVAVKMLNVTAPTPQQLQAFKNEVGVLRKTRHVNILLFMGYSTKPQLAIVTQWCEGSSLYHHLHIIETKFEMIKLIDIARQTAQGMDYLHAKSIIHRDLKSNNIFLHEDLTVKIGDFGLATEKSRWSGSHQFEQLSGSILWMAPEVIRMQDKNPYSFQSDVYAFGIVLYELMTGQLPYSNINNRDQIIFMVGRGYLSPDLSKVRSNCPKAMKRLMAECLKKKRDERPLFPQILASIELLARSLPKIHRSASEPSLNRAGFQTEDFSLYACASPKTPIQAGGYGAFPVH
Chain of EPHA5 (P54756 25-1037): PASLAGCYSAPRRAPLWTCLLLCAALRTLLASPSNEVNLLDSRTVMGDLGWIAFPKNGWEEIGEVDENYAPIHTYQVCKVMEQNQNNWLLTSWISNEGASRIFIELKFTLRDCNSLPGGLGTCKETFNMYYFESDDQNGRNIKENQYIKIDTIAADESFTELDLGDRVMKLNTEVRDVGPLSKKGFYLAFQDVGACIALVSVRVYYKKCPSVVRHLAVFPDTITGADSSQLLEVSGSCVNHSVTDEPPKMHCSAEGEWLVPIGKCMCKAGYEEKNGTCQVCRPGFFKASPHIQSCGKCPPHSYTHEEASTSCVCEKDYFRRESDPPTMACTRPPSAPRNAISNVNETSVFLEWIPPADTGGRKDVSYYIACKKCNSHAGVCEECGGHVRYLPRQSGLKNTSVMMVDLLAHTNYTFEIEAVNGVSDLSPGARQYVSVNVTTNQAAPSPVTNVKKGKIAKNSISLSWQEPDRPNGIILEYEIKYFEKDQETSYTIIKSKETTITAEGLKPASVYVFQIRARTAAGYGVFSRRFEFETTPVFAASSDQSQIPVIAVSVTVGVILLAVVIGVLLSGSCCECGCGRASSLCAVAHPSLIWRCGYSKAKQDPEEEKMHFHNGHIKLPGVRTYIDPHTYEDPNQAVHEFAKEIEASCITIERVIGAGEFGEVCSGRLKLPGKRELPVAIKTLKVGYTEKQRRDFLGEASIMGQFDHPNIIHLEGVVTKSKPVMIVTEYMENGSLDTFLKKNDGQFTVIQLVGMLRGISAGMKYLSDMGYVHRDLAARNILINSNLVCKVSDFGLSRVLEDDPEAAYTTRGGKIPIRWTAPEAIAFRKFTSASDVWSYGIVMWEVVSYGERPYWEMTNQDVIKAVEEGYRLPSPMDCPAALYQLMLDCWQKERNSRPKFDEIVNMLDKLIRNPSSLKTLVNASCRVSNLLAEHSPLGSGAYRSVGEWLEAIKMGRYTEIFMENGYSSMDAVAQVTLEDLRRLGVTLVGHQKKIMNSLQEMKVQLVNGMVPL
Chain of INSR (P06213 28-1382): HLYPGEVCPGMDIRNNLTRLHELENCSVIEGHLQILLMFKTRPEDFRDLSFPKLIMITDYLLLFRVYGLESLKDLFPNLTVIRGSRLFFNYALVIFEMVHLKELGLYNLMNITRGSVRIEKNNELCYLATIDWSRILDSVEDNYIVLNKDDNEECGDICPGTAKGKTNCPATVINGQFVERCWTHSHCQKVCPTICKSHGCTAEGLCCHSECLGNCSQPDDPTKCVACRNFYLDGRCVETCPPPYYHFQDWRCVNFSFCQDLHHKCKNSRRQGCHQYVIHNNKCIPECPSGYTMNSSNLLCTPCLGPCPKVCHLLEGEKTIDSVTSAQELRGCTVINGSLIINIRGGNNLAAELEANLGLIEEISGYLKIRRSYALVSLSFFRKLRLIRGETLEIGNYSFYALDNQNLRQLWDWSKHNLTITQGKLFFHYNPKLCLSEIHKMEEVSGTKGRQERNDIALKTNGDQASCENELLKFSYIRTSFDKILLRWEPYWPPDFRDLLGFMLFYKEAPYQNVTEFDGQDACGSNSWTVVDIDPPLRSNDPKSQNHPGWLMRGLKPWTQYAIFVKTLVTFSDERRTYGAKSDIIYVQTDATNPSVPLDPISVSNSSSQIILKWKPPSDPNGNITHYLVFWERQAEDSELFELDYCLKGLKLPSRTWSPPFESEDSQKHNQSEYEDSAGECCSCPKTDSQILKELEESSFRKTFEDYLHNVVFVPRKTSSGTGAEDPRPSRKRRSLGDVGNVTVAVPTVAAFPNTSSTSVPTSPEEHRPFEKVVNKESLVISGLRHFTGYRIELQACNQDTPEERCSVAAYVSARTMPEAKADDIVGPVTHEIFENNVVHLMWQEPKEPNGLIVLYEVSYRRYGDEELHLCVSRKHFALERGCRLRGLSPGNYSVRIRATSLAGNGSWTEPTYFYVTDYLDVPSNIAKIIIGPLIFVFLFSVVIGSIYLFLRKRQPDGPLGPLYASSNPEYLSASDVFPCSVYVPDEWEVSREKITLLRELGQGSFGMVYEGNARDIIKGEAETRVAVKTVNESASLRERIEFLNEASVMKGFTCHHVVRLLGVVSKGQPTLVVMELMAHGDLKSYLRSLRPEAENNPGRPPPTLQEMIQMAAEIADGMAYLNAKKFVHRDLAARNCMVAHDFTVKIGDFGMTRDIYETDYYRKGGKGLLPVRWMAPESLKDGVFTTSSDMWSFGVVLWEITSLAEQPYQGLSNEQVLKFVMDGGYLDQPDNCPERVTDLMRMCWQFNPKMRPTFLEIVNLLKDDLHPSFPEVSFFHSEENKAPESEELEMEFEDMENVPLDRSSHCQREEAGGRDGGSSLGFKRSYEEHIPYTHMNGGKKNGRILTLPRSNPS
Chain of AURKB (Aurora B) (Q96GD4 whole entry): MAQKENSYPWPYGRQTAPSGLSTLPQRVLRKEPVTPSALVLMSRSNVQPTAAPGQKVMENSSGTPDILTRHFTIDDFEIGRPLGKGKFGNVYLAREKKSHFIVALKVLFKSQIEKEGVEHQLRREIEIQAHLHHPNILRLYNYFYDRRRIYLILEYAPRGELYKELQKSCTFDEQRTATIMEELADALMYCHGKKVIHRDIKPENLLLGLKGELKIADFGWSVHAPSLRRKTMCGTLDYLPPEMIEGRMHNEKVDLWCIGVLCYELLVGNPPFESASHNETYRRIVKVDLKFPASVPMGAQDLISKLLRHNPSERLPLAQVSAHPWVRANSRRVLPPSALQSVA

One may read the inhibition as the change of the read-out against control, counted positive when it falls. `COc1cc2nccc(Oc3ccc(NC(=O)C4(C(=O)Nc5ccc(F)cc5)CC4)cc3)c2cc1OC` [Cabozantinib, reference compound]: the inhibition at 1 µM at ALK was found to be 28%; at EPHA5 it was 100%; on AURKB (Aurora B), 84%; at INSR it was 16%; on PDGFRB (PDGFR beta), 73%; on TNK1, 74%. For the same compound, the results for the inhibition at 1 µM at EPHA6 and at BRAF V599E were 103% and 24%, respectively.
Regarding `COc1cc2nccc(Oc3ccc(NC(=O)C4(C(=O)Nc5ccc(F)cc5)CC4)cc3F)c2cc1Oc1ccc(N)cc1F` [Cbo-23], the inhibition at 1 µM at ALK was 78%; on EPHA5, 99%; on AURKB (Aurora B), 67%; at INSR, 54%; at PDGFRB (PDGFR beta) it was 56%; at TNK1, 92%. Further, the inhibition at 1 µM amounted to 100% at EPHA6 and 5% on BRAF V599E.
Take `COc1cc2nccc(Oc3ccc(NC(=O)C4(NC(=O)c5ccc(F)cc5)CC4)cc3F)c2cc1Oc1ccc(N)cc1F` [Cbo-10]: the inhibition at 1 µM was found to be 36% on ALK; 87% on EPHA5; 83% on AURKB (Aurora B); 69% on INSR; 52% on PDGFRB (PDGFR beta); 39% on TNK1. In addition, the figures for the inhibition at 1 µM at EPHA6 and at BRAF V599E were 94% and 2%, respectively.
In the case of `COc1cc2nccc(Oc3ccc(NC(=O)C4(NC(=O)c5ccc(F)cc5)CC4)cc3F)c2cc1OC` [Cbo-02, N-(1-((4-((6,7-diMethoxyquinolin-4-yl)oxy)-3-fluorophenyl)carbamoyl)cyclopropyl)-4-fluorobenzamide], the inhibition at 1 µM at ALK stood at 20%; at EPHA5 it was 41%; on AURKB (Aurora B) it was 99%; at INSR, 30%; on PDGFRB (PDGFR beta), 34%; at TNK1, 17%. The inhibition at 1 µM on EPHA6 was found to be 75%; on BRAF V599E, 1%.
On to `COc1cc2nccc(Oc3ccc(NC(=O)C4(NC(=O)c5ccc(F)cc5)CC4)cc3F)c2cc1Oc1c(F)cc(N)cc1F` [Cbo-14], for which the inhibition at 1 µM turned out to be 32% on ALK; 92% on EPHA5; 84% on AURKB (Aurora B); 70% at INSR; 56% on PDGFRB (PDGFR beta); 64% at TNK1. The inhibition at 1 µM on EPHA6 was 96%; on BRAF V599E it was -3%.
